Results as given in patent US6737383B1, “Herbicidal oxadiazolidines” (priority 1999, dated 2004).

Experiments:
bedstraw = assay: Test B pre/postemergence bedstraw; assay type: in vivo, Galium aparine; details: for Plant response rating, Bedstraw: Rate 62 g/ha
How it was run: (§1)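 Herbicidal effect was estimated by eye on a ten-point control scale after plants spent twelve to sixteen days in a greenhouse following soil or foliar treatment. Foliar sprays targeted plants at one to four leaves; all doses were formulated in a non-phytotoxic solvent with surfactant.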

blackgrass = assay: Test B pre/postemergence blackgrass; assay type: in vivo, Alopecurus myosuroides
How it was run: as §1

surinam grass = assay: Test B pre/postemergence surinam grass; assay type: in vivo, Brachiaria decumbens
How it was run: as §1

cocklebur = assay: Test B pre/postemergence cocklebur; assay type: in vivo, Xanthium strumarium
How it was run: as §1

corn = assay: Test B pre/postemergence corn; assay type: in vivo, Zea mays
How it was run: as §1

crabgrass = assay: Test B pre/postemergence crabgrass; assay type: in vivo, Digitaria sanguinalis
How it was run: as §1

giant foxtail = assay: Test B pre/postemergence giant foxtail; assay type: in vivo, Setaria faberii
How it was run: as §1

morningglory = assay: Test B pre/postemergence morningglory; assay type: in vivo, Ipomoea hederacea
How it was run: as §1

pigweed = assay: Test B pre/postemergence pigweed; assay type: in vivo, Amaranthus retroflexus
How it was run: as §1

rape = assay: Test B pre/postemergence rape; assay type: in vivo, Brassica napus
How it was run: as §1

soybean = assay: Test B pre/postemergence soybean; assay type: in vivo, Glycine max
How it was run: as §1

sugar beet = assay: Test B pre/postemergence sugar beet; assay type: in vivo, Beta vulgaris
How it was run: as §1

velvetleaf = assay: Test B pre/postemergence velvetleaf; assay type: in vivo, Abutilon theophrasti
How it was run: as §1

wheat = assay: Test B pre/postemergence wheat; assay type: in vivo, Triticum aestivum
How it was run: as §1

wild oat = assay: Test B pre/postemergence wild oat; assay type: in vivo, Avena fatua
How it was run: as §1

purple nutsedge = assay: Test B pre/postemergence purple nutsedge; assay type: in vivo, Cyperus rotundus
How it was run: as §1

[1] = Postemergence, Rate 125 g/ha, scale of 0 to 10 where 0 is no effect and 10 is complete control
[2] = Postemergence, Rate 500 g/ha, scale 0 (no effect) to 10 (complete control)
[3] = Rate 125 g/ha, Preemergence, scale 0 to 10 (0 no effect, 10 complete control)
[4] = Rate 250 g/ha, Postemergence, scale 0 to 10, 0 is no effect, 10 is complete control
[5] = Rate 500 g/ha, Preemergence, scale 0 to 10 (0 no effect, 10 complete control)
[6] = Postemergence, Rate 62 g/ha, scale 0 to 10, 0 is no effect, 10 is complete control
[7] = Preemergence, Rate 250 g/ha, scale 0 (no effect) to 10 (complete control)
[8] = Rate 62 g/ha, Preemergence, scale 0 to 10
[9] = Preemergence, Rate 125 g/ha, scale 0 to 10, 0 is no effect, 10 is complete control
[10] = Preemergence, Rate 250 g/ha, scale 0 to 10, 0 is no effect, 10 is complete control
[11] = Preemergence, Rate 500 g/ha, scale 0 to 10, 0 is no effect, 10 is complete control
[12] = Postemergence, Rate 62 g/ha, scale of 0 to 10, 0 is no effect, 10 is complete control
[13] = Postemergence, Rate 125 g/ha, scale 0 to 10, 0 is no effect, 10 is complete control
[14] = Postemergence, Rate 250 g/ha, scale 0 to 10
[15] = Postemergence, Rate 500 g/ha, scale 0 to 10, 0 is no effect, 10 is complete control
[16] = Preemergence, Rate 62 g/ha, scale of 0 to 10 where 0 is no effect and 10 is complete control
[17] = Preemergence, Rate 500 g/ha, scale of 0 to 10 where 0 is no effect and 10 is complete control

C#CCCn1c(=O)on(C(=O)N(c2ccc(F)cc2)C(C)C)c1=O [Compound 767]
3: Plant response rating, Sugarbeets (sugar beet; [6]) | Velvetleaf plant response rating (velvetleaf; [2]) | Wild oats plant response rating (wild oat; [2])
6: B. signalgrass plant response rating (surinam grass; [4]) | Plant response rating, Redroot pigweed (pigweed; [6]) | Rape plant response rating (rape; [3]) | Sugarbeets plant response rating (sugar beet; [3])
0: Bedstraw plant response rating (bedstraw; [3]) | Cocklebur plant response rating (cocklebur; [7]) | Cocklebur plant response rating (cocklebur; [8]) | Cocklebur plant response rating (cocklebur; [3]) | Cocklebur plant response rating (cocklebur; [5]) | Plant response rating, Corn (corn; [6]) | Corn plant response rating (corn; [1]) | Corn plant response rating (corn; [7]) | Corn plant response rating (corn; [8]) | Corn plant response rating (corn; [3]) | Corn plant response rating (corn; [4]) | Morningglory plant response rating (morningglory; [8]) | Morningglory plant response rating (morningglory; [3]) | Morningglory plant response rating (morningglory; [5]) | Soybean plant response rating (soybean; [8]) | Soybean plant response rating (soybean; [3]) | Velvetleaf plant response rating (velvetleaf; [8]) | Velvetleaf plant response rating (velvetleaf; [3]) | Plant response rating, Wheat (wheat; [6]) | Wheat plant response rating (wheat; [8]) | Plant response rating, Wild oats (wild oat; [6]) | Wild oats plant response rating (wild oat; [4]) | Plant response rating, Nutsedge (purple nutsedge; [6]) | Nutsedge plant response rating (purple nutsedge; [1]) | Nutsedge plant response rating (purple nutsedge; [8]) | Nutsedge plant response rating (purple nutsedge; [3]) | Nutsedge plant response rating (purple nutsedge; [4]) | Nutsedge plant response rating (purple nutsedge; [5])
5: Corn plant response rating (corn; [5]) | Plant response rating, Morningglory (morningglory; [6]) | Morningglory plant response rating (morningglory; [1]) | Morningglory plant response rating (morningglory; [4]) | Sugarbeets plant response rating (sugar beet; [4]) | Wheat plant response rating (wheat; [3]) | Wheat plant response rating (wheat; [5])
10: Blackgrass plant response rating (blackgrass; [7]) | Blackgrass plant response rating (blackgrass; [8]) | Blackgrass plant response rating (blackgrass; [3]) | Blackgrass plant response rating (blackgrass; [5]) | Crabgrass plant response rating (crabgrass; [7]) | Crabgrass plant response rating (crabgrass; [8]) | Crabgrass plant response rating (crabgrass; [3]) | Crabgrass plant response rating (crabgrass; [5]) | Giant foxtail plant response rating (giant foxtail; [7]) | Giant foxtail plant response rating (giant foxtail; [8]) | Giant foxtail plant response rating (giant foxtail; [3]) | Giant foxtail plant response rating (giant foxtail; [5]) | Redroot pigweed plant response rating (pigweed; [8]) | Redroot pigweed plant response rating (pigweed; [3]) | Redroot pigweed plant response rating (pigweed; [5]) | Rape plant response rating (rape; [5])
8: Bedstraw plant response rating (bedstraw; [5]) | Plant response rating, Crabgrass (crabgrass; [6]) | Crabgrass plant response rating (crabgrass; [1]) | Plant response rating, Giant foxtail (giant foxtail; [6]) | Giant foxtail plant response rating (giant foxtail; [1])
7: Plant response rating, Bedstraw (bedstraw; Postemergence, scale 0 to 10, 0 is no effect, 10 is complete control) | Bedstraw plant response rating (bedstraw; [1]) | Bedstraw plant response rating (bedstraw; [4]) | B. signalgrass plant response rating (surinam grass; Rate 500 g/ha, Postemergence, scale 0 to 10, 0 is no effect, 10 is complete control) | Morningglory plant response rating (morningglory; [2]) | Soybean plant response rating (soybean; [2]) | Sugarbeets plant response rating (sugar beet; [2]) | Nutsedge plant response rating (purple nutsedge; [2])
1: Plant response rating, Soybean (soybean; [6])
9: Bedstraw plant response rating (bedstraw; [2]) | Plant response rating, Blackgrass (blackgrass; [6]) | Blackgrass plant response rating (blackgrass; [1]) | Blackgrass plant response rating (blackgrass; [2]) | Blackgrass plant response rating (blackgrass; [4]) | Crabgrass plant response rating (crabgrass; [2]) | Crabgrass plant response rating (crabgrass; [4]) | Giant foxtail plant response rating (giant foxtail; [2]) | Giant foxtail plant response rating (giant foxtail; [4]) | Redroot pigweed plant response rating (pigweed; [1]) | Redroot pigweed plant response rating (pigweed; [2]) | Redroot pigweed plant response rating (pigweed; [4]) | Sugarbeets plant response rating (sugar beet; [5]) | Wild oats plant response rating (wild oat; [8]) | Wild oats plant response rating (wild oat; [5])
2: Plant response rating, B. signalgrass (surinam grass; [6]) | B. signalgrass plant response rating (surinam grass; [1]) | Plant response rating, Cocklebur (cocklebur; [6]) | Cocklebur plant response rating (cocklebur; [1]) | Cocklebur plant response rating (cocklebur; [2]) | Cocklebur plant response rating (cocklebur; [4]) | Corn plant response rating (corn; [2]) | Soybean plant response rating (soybean; [5]) | Sugarbeets plant response rating (sugar beet; [8]) | Plant response rating, Velvetleaf (velvetleaf; [6]) | Velvetleaf plant response rating (velvetleaf; [4]) | Velvetleaf plant response rating (velvetleaf; [5]) | Wheat plant response rating (wheat; [2]) | Wheat plant response rating (wheat; [4])
4: Rape plant response rating (rape; [8]) | Soybean plant response rating (soybean; [4])

Cc1noc(C)c1Cn1c(=O)on(C(=O)N(c2ccc(F)cc2F)C(C)C)c1=O [Compound 510]
3: Cocklebur plant response rating (cocklebur; [12]) | Cocklebur plant response rating (cocklebur; [13]) | Crabgrass plant response rating (crabgrass; [12]) | Plant response rating, Wheat (wheat; [15])
9: B. signalgrass plant response rating (surinam grass; [11]) | Plant response rating, Crabgrass (crabgrass; [15]) | Crabgrass plant response rating (crabgrass; [9]) | Crabgrass plant response rating (crabgrass; [17]) | Plant response rating, Giant foxtail (giant foxtail; [15]) | Plant response rating, Giant foxtail (giant foxtail; [16]) | Giant foxtail plant response rating (giant foxtail; [9]) | Redroot pigweed plant response rating (pigweed; [9]) | Plant response rating, Rape (rape; [15]) | Rape plant response rating (rape; [17])
7: Blackgrass plant response rating (blackgrass; [10]) | Plant response rating, B. signalgrass (surinam grass; [16]) | B. signalgrass plant response rating (surinam grass; [9]) | Redroot pigweed plant response rating (pigweed; [12]) | Redroot pigweed plant response rating (pigweed; [13]) | Plant response rating, Redroot pigweed (pigweed; [16]) | Soybean plant response rating (soybean; [13]) | Sugarbeets plant response rating (sugar beet; [17]) | Plant response rating, Velvetleaf (velvetleaf; [15]) | Wild oats plant response rating (wild oat; [17])
10: Giant foxtail plant response rating (giant foxtail; [17]) | Redroot pigweed plant response rating (pigweed; [17])
5: Blackgrass plant response rating (blackgrass; [12]) | Blackgrass plant response rating (blackgrass; [13]) | Blackgrass plant response rating (blackgrass; [14]) | Corn plant response rating (corn; [17]) | Plant response rating, Crabgrass (crabgrass; [16]) | Morningglory plant response rating (morningglory; [13]) | Morningglory plant response rating (morningglory; [17]) | Rape plant response rating (rape; [9]) | Plant response rating, Wild oats (wild oat; [15])
4: Bedstraw plant response rating (bedstraw; [11]) | B. signalgrass plant response rating (surinam grass; [13]) | B. signalgrass plant response rating (surinam grass; Postemergence, Rate 250 g/ha, scale 0 to 10, 0 no effect, 10 complete control) | Cocklebur plant response rating (cocklebur; [14]) | Plant response rating, Cocklebur (cocklebur; [15]) | Giant foxtail plant response rating (giant foxtail; [12]) | Morningglory plant response rating (morningglory; [12]) | Rape plant response rating (rape; [13]) | Soybean plant response rating (soybean; [12]) | Sugarbeets plant response rating (sugar beet; [13]) | Velvetleaf plant response rating (velvetleaf; [12]) | Velvetleaf plant response rating (velvetleaf; [13]) | Plant response rating, Wild oats (wild oat; [16])
8: Blackgrass plant response rating (blackgrass; [17]) | B. signalgrass plant response rating (surinam grass; [10]) | Crabgrass plant response rating (crabgrass; [13]) | Crabgrass plant response rating (crabgrass; [14]) | Plant response rating, Soybean (soybean; [15]) | Plant response rating, Sugarbeets (sugar beet; [15])
6: Plant response rating, Blackgrass (blackgrass; [15]) | Plant response rating, Blackgrass (blackgrass; [16]) | Blackgrass plant response rating (blackgrass; [9]) | Plant response rating, B. signalgrass (surinam grass; [15]) | Giant foxtail plant response rating (giant foxtail; [13]) | Plant response rating, Morningglory (morningglory; [15]) | Velvetleaf plant response rating (velvetleaf; [17]) | Wild oats plant response rating (wild oat; [9])
1: Rape plant response rating (rape; [12]) | Plant response rating, Velvetleaf (velvetleaf; [16])
0: Plant response rating, Bedstraw (bedstraw; Preemergence, scale of 0 to 10 where 0 is no effect and 10 is complete control) | Bedstraw plant response rating (bedstraw; [9]) | Bedstraw plant response rating (bedstraw; [10]) | Plant response rating, Cocklebur (cocklebur; [16]) | Cocklebur plant response rating (cocklebur; [9]) | Cocklebur plant response rating (cocklebur; [17]) | Corn plant response rating (corn; [12]) | Corn plant response rating (corn; [13]) | Corn plant response rating (corn; [14]) | Plant response rating, Corn (corn; [15]) | Plant response rating, Corn (corn; [16]) | Corn plant response rating (corn; [9]) | Plant response rating, Morningglory (morningglory; [16]) | Morningglory plant response rating (morningglory; [9]) | Plant response rating, Soybean (soybean; [16]) | Soybean plant response rating (soybean; [9]) | Soybean plant response rating (soybean; [17]) | Plant response rating, Sugarbeets (sugar beet; [16]) | Sugarbeets plant response rating (sugar beet; [9]) | Wheat plant response rating (wheat; [12]) | Wheat plant response rating (wheat; [13]) | Plant response rating, Wheat (wheat; [16]) | Wheat plant response rating (wheat; [9]) | Wheat plant response rating (wheat; [17]) | Wild oats plant response rating (wild oat; [12]) | Wild oats plant response rating (wild oat; [13]) | Nutsedge plant response rating (purple nutsedge; [13]) | Plant response rating, Nutsedge (purple nutsedge; [15]) | Plant response rating, Nutsedge (purple nutsedge; [16]) | Nutsedge plant response rating (purple nutsedge; [9]) | Nutsedge plant response rating (purple nutsedge; [17])
2: B. signalgrass plant response rating (surinam grass; [12]) | Plant response rating, Rape (rape; [16]) | Sugarbeets plant response rating (sugar beet; [12]) | Velvetleaf plant response rating (velvetleaf; [9])
